Test results: patent US12503432B2, “Ionizable lipids for nucleic acid delivery” (Global Life Sciences Solutions Canada ULC, priority 2019, dated 2025)

What was measured:
[1] = LNP characterization: size and PDI by dynamic light scattering, mRNA encapsulation efficiency by RiboGreen assay; type: physicochemical
Method in brief: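 Lipid nanoparticles made by microfluidic mixing of mRNA or plasmid in 100 mM sodium acetate with ethanolic lipid mix (Ignite: 3:1 flow ratio, 12 ml/min; Spark: N/P 4, 6 or 10), diluted in PBS pH 7.4. Z-average size and PDI by backscatter DLS (173°, 633 nm, 10 runs × 2 cycles). Encapsulation by RiboGreen assay.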

[2] = system: C57BL/6 mice; test: In vivo delivery of EPO-encoded mRNA LNP via intravenous route, serum EPO ELISA; parameters: key to EPO Protein expression: IV in mice: *: The number of asterix symbols indicates protein expression levels interpreted by the inventors from quantitative data; **: The number of asterix symbols indicates protein expression levels interpreted by the inventors from quantitative data; ***: The number of asterix symbols indicates protein expression levels interpreted by the inventors from quantitative data; ****: The number of asterix symbols indicates protein expression levels interpreted by the inventors from quantitative data; *****: The number of asterix symbols indicates protein expression levels interpreted by the inventors from quantitative data; *******: The number of asterix symbols indicates protein expression levels interpreted by the inventors from quantitative data; conditions: qualitative grade interpreted from quantitative data
Source text: Lipid Nanoparticles with the composition IL/DSPC/Cholesterol/PEG-DMG2000 (LM 02—see Table 3) were used to encapsulate recombinant human erythropoietin (EPO) encoded mRNA with 5-moU modifications [TriLink CleanCapo 5-moU EPO mRNA L7201]. To create the LNP, lipid mix in ethanol was microfluidically mixed with a low PH buffered solution of 5-moU EPO mRNA mixer at an N/P ratio of 6 using a NanoAssemblr® Ignite™ microfluidic mixer. The microfluidically mixed particles were downstream processed using Amicon® ultra 15 10 kDa MWCO units (EMD Millipore) filtration technique. The RNA loaded lipid particles were then characterized for size, PDI and Encapsulation Efficiency (EE). Size and PDI were measured using dynamic light scattering techniques described above, and nucleic acid encapsulation efficiency was calculated using a Quant-iT RiboGreen RNA assay as described supra, modified to use hEPO mNA as the standard instead if the standard RNA in the kit. The hydrodynamic diameter of these mRNA-LNPs was ˜70 nm with a PDI in the range of 0.02 to 0.1 and an encapsulation efficiency of ˜97.8%.
Animals were handled according to the Institutional Animal Care and Use Committee ethics protocols. For experiments, 6-8 week old C57BL/6 mice were purchased from Envigo (South Kent, WA, USA). For in vivo activity, female C57BL/6 mice were treated intravenously with EPO mRNA LNPs at specified dosages of 0.5-3 mg/Kg. Samples of 50-75 μL of blood were collected 6 h post administration via saphenous vein, and at regular time intervals of 24 h or 48 h.
After harvest, blood was immediately prepared to produce serum samples using standard techniques, and stored at −80 degrees C. Briefly, after collection, the blood was allowed to clot at room temperature for 15-30 minutes. The clot was removed by centrifuging the tubes at 1000-2000×g for 10 min at 4 degrees Celsius. The clear golden-yellow color supernatant was carefully removed and transferred to sterile screw-capped clear polypropylene tubes on ice. The serum was then stored, if necessary, at −80° C. until analysis.
Samples were thawed, then analyzed at appropriate dilutions for EPO protein expression and for cytokine/chemokine levels. The total serum EPO levels were evaluated using Quantikine® IVD EPO ELISA kit (Bio-Techne, Minneapolis, MN, USA).
Following i.v administration of a 0.5 mg/Kg dose of recombinant human EPO-encoded mRNA LNPs containing ionizable lipid MC3, PNI 121 or PNI 123 using the LM02 composition at N/P 6, EPO expression levels at 6 h (upper, FIG. 6) and at 24 h (lower, FIG. 6) in C56BL/6 mice were examined; hEPO protein was measured using Quantikine® IVD® ELISA Human Erythropoietin Immunoassay protocol.

[3] = 5-moU EPO encoded LNPs, IL:DSPC:cholesterol:DMG-PEG (50:10:38.5:1.5), N/P 6
[4] = Table 4 LNPs, payload and lipid mix not stated
[5] = OVA encoded LNPs, payload WT OVA, LM02, N/P 8

| SMILES | Diameter (Z. ave, nm) [1, 3] | Encapsulation Efficiency (%) [1, 3] | Polydispersity Index (PDI) [1, 3] | Diameter (Z. ave, nm) [1, 4] | Encapsulation Efficiency (%) [1, 4] | Polydispersity Index (PDI) [1, 4] | EPO Protein expression: IV in mice [2] | Diameter (Z. ave, nm) [1, 5] | Encapsulation Efficiency (%) [1, 5] | Polydispersity Index (PDI) [1, 5] |
| --- | --- | --- | --- | --- | --- | --- | --- | --- | --- | --- |
| CC/C=C\CC1C(CC(=O)OC(CCCCCCCCC2CC2CCCCCCCC)CCCCCCCCC2CC2CCCCCCCC)CCC1OC(=O)CCN(C)C (stereo not shown) [PNI 549] | 62.5 nm | 97.4% | 0.06 | 71.2 nm | 96.4% | 0.05 | *** |  |  |  |
| CC/C=C\CC1C(CC(=O)OCCC(CCCCCCCC)OC(=O)C(CCCCCC)CCCCCCCC)CCC1OC(=O)CCN(C)C (stereo not shown) [PNI 554] | 55.4 nm | 97.5% | 0.09 | 55.1 nm | 96.6% | 0.06 | *** |  |  |  |
| CC/C=C\CC1C(CC(=O)OCC(COCCCCCCCC/C=C\C/C=C\CCCCC)OCCCCCCCC/C=C\C/C=C\CCCCC)CCC1OC(=O)CC1CCN(C)C1 (stereo not shown) [PNI 557] | 71.8 nm | 98.9% | 0.08 | 95.4 nm | 98.7% | 0.02 | ** |  |  |  |
| CC/C=C\CC1C(CC(=O)OCC(COCCCCCCCC/C=C\C/C=C\CCCCC)OCCCCCCCC/C=C\C/C=C\CCCCC)CCC1OC(=O)CCCN1CCCC1 (stereo not shown) [PNI 558] | 73.2 nm | 98.9% | 0.03 | 91.2 nm | 98.7% | 0.07 | *** |  |  |  |
| CC/C=C\CC1C(CC(=O)OCC(COCCCCCCCC/C=C\C/C=C\CCCCC)OCCCCCCCC/C=C\C/C=C\CCCCC)CCC1OC(=O)CC1CCCCN1C (stereo not shown) [PNI 559] | 64.6 nm | 97.3% | 0.03 | 59.4 nm | 95.9% | 0.07 | *** |  |  |  |
| CC/C=C\CC1C(CC(=O)OC(CCCCCCCCC2CC2CCCCCCCC)CCCCCCCCC2CC2CCCCCCCC)CCC1OC(=O)C1(C)CCN(C)CC1 (stereo not shown) [PNI 560] | 63.1 nm | 98.7% | 0.06 | 60.5 nm | 98.4% | 0.06 | **** | 76.7 nm | 97.7% | 0.05 |
| CC/C=C\CC1C(CC(=O)OCCC(CCCCCCCC)OC(=O)C(CCCCCC)CCCCCCCC)CCC1OC(=O)C1(C)CCN(C)CC1 (stereo not shown) [PNI 565] | 60.8 nm | 97.9% | 0.03 | 69.9 nm | 97.4% | 0.03 | *** |  |  |  |
